SMILES strings stand for the structures.

By inhibition is commonly meant the change of the read-out against control, counted positive when it falls.

The target in one assay is T1, ORL1 receptor (Homo sapiens, UniProt P41146).
T1 construct: expressed in transfected cells; host or cells: CHO (recombinant CHO-ORL1 cells), membranes
Kind of assay: ORL1 receptor binding assay with 3H-nociceptin/orphanin FQ (WGA-SPA beads). Conditions: c=1 μM test substance; 0.5 nM 3H-nociceptin/orphanin FQ; membranes of recombinant CHO-ORL1 cells. The method, boiled down: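 Radioligand displacement on membranes from recombinant CHO-ORL1 cells, 0.5 nM 3H-nociceptin/orphanin FQ, 20 μg membrane protein per batch in 50 mM Hepes pH 7.4, 10 mM MgCl2, 1 mM EDTA. Incubated 1 h at room temperature with WGA-SPA beads, scintillation read. Reported as Ki (nM) or % inhibition at 1 μM.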

Another assay addresses T2, human μ-opiate receptor (Homo sapiens, UniProt P35372).
T2 construct: purchased NEN, Zaventem, Belgium RB-HOM; host or cells: CHO-K1 cells (membrane preparation)
Nature of the assay: μ-opiate receptor binding assay with [3H] naloxone (WGA-SPA beads). The settings on record: 1 μmol/l test substance, 1 nmol/l [3H] naloxone, CHO-K1 cell membranes expressing human μ-opiate receptor. The method, boiled down: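 CHO-K1 membranes expressing human μ-opiate receptor incubated 90 min at room temperature with 1 nmol/l [3H]naloxone and WGA-SPA beads in 50 mmol/l Tris-HCl with 0.05% azide, 0.06% BSA. Non-specific binding with 25 μmol/l naloxone; % inhibition at 1 μmol/l, or IC50 converted to Ki via Cheng-Prusoff.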

T2 sequence (P35372 whole entry): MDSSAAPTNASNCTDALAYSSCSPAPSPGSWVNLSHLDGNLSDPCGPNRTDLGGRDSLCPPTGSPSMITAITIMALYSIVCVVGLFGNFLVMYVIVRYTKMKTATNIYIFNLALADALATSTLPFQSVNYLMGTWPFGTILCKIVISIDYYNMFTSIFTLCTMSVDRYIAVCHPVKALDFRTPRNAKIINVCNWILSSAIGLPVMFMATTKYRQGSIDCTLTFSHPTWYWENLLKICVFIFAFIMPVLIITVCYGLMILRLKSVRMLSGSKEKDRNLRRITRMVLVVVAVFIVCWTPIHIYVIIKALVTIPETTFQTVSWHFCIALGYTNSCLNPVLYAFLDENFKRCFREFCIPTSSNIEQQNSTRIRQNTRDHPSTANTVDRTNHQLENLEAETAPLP
T1 sequence (P41146 whole entry): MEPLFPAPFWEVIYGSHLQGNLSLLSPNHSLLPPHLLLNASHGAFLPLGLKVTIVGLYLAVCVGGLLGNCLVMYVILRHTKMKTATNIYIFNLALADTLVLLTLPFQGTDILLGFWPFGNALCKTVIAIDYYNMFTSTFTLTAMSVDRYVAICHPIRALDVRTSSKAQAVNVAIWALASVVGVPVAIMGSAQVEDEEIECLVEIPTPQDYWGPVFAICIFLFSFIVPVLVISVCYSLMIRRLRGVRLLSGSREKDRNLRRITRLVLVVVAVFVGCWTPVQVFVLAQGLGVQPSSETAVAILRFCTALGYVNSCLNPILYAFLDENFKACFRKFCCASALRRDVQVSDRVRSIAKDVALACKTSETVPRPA

In the case of `COc1ccc2c(c1)c(CN(C)CCN1CCC(c3ccccc3)(N(C)C)CC1)c(C)n2Cc1ccccc1` [Example 193, 1-(2-(((1-benzyl-5-methoxy-2-methyl-1H-indol-3-yl)methyl)(methyl)amino)ethyl)-N,N-dimethyl-4-phenylpiperidin-4-amine], the inhibition at 1 µM at ORL1 receptor turned out to be 68%; on human μ-opiate receptor, 82%.
On to `CN(CCN1CCC(c2ccccc2)(N(C)C)CC1)Cc1cccc2[nH]ccc12` [Example 194, 1-(2-(((1H-indol-4-yl)methyl)(methy)amino)ethyl)-N,N-dimethyl-4-phenylpiperidin-4-amine], for which, at ORL1 receptor, the “% Inhibition (ORL1) at 1 μM” value worked out at 56%. For the same compound, the “% Inhibition (μ) at 1 μM” value on human μ-opiate receptor worked out at 99%.
Take `CN(CCN1CCC(c2ccccc2)(N(C)C)CC1)Cc1cccc2[nH]ccc12` [Example 195, 1-(2-(((1H-indol-4-yl)methyl)(methy)amino)ethyl)-N,N-dimethyl-4-phenylpiperidin-4-amine]: the “% Inhibition (ORL1) at 1 μM” value at ORL1 receptor was found to be 56%. Also, the “% Inhibition (μ) at 1 μM” value on human μ-opiate receptor is 78%.

The values above are taken from patent publication US9206156B2, “Substituted indole derivatives” (GRÜNENTHAL GMBH, priority 2008, dated 2015).
